Values quoted from earlier work as cited in article PMC8364686, “Safety, tolerability, pharmacokinetics and pharmacodynamics of single oral doses of BI 187004, an inhibitor of 11beta-hydroxysteroid dehydrogenase-1, in healthy male volunteers with overweight or obesity” (Clinical Diabetes and Endocrinology, 2021).
Where two headings read alike, the source gives them in different places.

Legend:
11beta-HSD1 in AT = conditions: single dose, cited from earlier work
11beta-HSD1 = conditions: cited from earlier work

Structure (SMILES): CC(C)[C@]1(C)SC(=N[C@H]2C[C@@H]3CC[C@H]2C3)NC1=O [AMG 221]
- 11beta-HSD1 inhibition in AT (11beta-HSD1 in AT; 24-h study duration): > 90%

Structure (SMILES): CCCSc1nc(N2CCC[C@@H](CC(=O)O)C2)ccc1C(=O)NC1CCCCC1 [AZD4017]
- Maximum decrease in urinary (aTHF + THF)/THE ratio (11beta-HSD1; highest dose of 900 mg, after 9 days): 92%

Structure (SMILES): C[C@@H](c1ccc(-c2ccn(C)c(=O)c2)cc1)N1CC[C@](CC(C)(C)O)(c2ccccc2)OC1=O [BI 135585]
- 11beta-HSD1 inhibition in AT (11beta-HSD1 in AT; 24 h after dosing): 90%

Structure (SMILES): N#Cc1ccc(-c2ccc(S(=O)(=O)Nc3cccc(N)n3)cc2)cc1 [PF-915275]
- Maximum decrease in urinary (aTHF + THF)/THE ratio (11beta-HSD1; after 14 days of treatment): 26%
